Reference: ChEMBL document CHEMBL1201862, “PubChem BioAssay data set” (2004)
Activity calls are given as the source filed them.

How the values were obtained:
[1] = target: Trypsin (Sus scrofa, UniProt P00761); experiment: trypsin protease activity blockade – biochemical, quenched peptide fluorescence, cherry-pick, selectivity assay for Rce1 protease inhibitor project, dose response (AID 488789)
[2] = target: T1, CAAX prenyl protease 2 (Homo sapiens, UniProt Q9Y256); experiment: inhibition of Ras-converting CAAX protease Rce1 – biochemical, yeast membranes, quenched-peptide fluorescence, cherry-pick, dose response (AID 588849)
T1 sequence (Q9Y256 whole entry): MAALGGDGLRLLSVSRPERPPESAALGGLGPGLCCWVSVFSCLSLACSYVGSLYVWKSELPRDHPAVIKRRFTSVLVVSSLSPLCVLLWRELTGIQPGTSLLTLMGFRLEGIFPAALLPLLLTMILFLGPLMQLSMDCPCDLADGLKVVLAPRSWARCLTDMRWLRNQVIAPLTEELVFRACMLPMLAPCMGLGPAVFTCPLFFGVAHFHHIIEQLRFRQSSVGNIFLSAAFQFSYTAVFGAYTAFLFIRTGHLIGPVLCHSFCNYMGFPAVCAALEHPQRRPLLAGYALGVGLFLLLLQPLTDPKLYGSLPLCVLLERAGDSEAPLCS

[3] = target: T2, CAAX prenyl protease 2 (Saccharomyces cerevisiae S288c, UniProt Q03530); format: biochemical
T2 sequence (Q03530 whole entry): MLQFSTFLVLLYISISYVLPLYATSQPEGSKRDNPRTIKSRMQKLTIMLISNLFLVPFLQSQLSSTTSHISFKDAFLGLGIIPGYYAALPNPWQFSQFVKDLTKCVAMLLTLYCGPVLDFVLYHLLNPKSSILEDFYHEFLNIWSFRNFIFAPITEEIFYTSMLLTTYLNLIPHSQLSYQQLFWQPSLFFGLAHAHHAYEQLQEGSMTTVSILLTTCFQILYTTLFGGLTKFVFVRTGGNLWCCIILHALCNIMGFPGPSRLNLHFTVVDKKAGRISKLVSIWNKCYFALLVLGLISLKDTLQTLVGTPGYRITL

[4] = target: DNA repair and recombination protein RAD54-like (Homo sapiens, UniProt Q92698); experiment: RAD54 Holliday junction migration blockers – biochemical, fluorescence, cherry-picked samples, dose series, confirmation (AID 651657); format: functional
DNA repair and recombination protein RAD54-like, sequence (Q92698 whole entry, the tested form may be a part): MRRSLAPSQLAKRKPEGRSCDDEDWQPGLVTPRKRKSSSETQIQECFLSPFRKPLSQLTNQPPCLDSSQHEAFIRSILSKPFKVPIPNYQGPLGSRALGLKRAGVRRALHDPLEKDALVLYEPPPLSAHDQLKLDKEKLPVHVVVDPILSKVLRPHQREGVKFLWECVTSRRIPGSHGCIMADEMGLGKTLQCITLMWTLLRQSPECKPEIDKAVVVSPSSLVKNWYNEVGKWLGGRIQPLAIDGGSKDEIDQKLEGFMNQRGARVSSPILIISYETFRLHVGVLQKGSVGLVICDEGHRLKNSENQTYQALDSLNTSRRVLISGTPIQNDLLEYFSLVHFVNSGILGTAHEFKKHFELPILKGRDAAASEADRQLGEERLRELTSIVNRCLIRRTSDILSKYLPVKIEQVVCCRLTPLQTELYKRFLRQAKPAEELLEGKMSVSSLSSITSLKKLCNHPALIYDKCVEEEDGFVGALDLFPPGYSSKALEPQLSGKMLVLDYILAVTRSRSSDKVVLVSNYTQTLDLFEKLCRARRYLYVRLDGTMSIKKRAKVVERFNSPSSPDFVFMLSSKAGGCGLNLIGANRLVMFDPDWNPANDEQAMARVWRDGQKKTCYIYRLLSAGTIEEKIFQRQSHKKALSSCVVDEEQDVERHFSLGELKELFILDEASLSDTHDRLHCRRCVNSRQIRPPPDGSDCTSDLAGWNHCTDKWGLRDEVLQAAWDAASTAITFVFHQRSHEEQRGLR

[5] = inhibition of ARNT PAS-B/TACC3 complex formation – biochemical, AlphaScreen, cherry-picked samples, confirmation (AID 651703); format: functional, Homo sapiens;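 note: His-tagged ARNT PAS-B domain paired with GST-TACC3 E629A dimer coactivator fragment; potency of inhibitors that break up the complex and lower AlphaScreen signal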
[6] = cells; format: functional
[7] = activation of miR-122 Renilla sensor silencing – cell-based, Huh7 psiCHECK-miR122, Renilla luciferase, cherry-picked, dose response (AID 651956); format: functional;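 note: huh7 hepatoma cells stably carrying a psiCHECK-2 miR-122 sensor plasmid; renilla luciferase signal reporting endogenous miR-122 activity after 48 h compound exposure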
[8] = target: T3, Apoptotic protease-activating factor 1 (Homo sapiens, UniProt O14727); format: functional
T3 sequence (O14727 whole entry): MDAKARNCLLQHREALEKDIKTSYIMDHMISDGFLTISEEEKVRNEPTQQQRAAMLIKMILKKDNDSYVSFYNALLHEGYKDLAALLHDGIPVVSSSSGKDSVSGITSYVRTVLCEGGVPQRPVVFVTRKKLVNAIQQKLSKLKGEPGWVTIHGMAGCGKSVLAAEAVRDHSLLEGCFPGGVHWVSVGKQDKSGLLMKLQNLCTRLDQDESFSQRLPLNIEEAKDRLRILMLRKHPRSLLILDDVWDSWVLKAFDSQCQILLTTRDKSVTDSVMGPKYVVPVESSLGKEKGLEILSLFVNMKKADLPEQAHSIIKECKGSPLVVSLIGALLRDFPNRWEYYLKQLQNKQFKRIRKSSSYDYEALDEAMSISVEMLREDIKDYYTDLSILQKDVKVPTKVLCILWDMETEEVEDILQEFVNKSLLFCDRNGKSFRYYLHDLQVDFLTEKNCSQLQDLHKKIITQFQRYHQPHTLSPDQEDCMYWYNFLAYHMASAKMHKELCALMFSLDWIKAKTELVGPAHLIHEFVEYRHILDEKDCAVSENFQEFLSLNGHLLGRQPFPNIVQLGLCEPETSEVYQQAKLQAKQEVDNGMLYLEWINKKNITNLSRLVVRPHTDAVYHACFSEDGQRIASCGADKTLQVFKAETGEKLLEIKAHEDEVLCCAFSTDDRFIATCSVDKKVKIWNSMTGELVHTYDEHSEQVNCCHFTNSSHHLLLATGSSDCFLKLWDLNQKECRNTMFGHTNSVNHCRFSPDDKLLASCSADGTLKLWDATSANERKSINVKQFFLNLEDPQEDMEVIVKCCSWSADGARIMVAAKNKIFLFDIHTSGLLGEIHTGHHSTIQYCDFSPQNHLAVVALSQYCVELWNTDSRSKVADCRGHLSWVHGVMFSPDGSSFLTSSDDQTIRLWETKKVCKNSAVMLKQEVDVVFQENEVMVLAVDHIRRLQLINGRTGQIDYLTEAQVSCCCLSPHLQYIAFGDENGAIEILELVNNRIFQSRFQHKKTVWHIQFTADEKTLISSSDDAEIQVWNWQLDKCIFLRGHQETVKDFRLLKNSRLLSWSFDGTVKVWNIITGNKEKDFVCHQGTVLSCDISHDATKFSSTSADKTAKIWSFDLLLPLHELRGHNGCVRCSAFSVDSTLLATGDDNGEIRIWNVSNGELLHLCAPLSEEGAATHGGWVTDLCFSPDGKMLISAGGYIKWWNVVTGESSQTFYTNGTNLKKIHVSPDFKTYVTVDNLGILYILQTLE

[9] = target: Long-chain-fatty-acid--AMP ligase FadD28 (Mycobacterium tuberculosis, UniProt P9WQ59); experiment: Fluorescence polarization aasay to screen for inhibitors that compete for the binding of FadD28 to a bisubstrate Measured in Biochemical System Using Plate Reader - 2147-01_Inhibitor_Dose_CherryPick_Activity.; format: functional, Mycobacterium tuberculosis H37Rv
Long-chain-fatty-acid--AMP ligase FadD28, sequence (P9WQ59 whole entry): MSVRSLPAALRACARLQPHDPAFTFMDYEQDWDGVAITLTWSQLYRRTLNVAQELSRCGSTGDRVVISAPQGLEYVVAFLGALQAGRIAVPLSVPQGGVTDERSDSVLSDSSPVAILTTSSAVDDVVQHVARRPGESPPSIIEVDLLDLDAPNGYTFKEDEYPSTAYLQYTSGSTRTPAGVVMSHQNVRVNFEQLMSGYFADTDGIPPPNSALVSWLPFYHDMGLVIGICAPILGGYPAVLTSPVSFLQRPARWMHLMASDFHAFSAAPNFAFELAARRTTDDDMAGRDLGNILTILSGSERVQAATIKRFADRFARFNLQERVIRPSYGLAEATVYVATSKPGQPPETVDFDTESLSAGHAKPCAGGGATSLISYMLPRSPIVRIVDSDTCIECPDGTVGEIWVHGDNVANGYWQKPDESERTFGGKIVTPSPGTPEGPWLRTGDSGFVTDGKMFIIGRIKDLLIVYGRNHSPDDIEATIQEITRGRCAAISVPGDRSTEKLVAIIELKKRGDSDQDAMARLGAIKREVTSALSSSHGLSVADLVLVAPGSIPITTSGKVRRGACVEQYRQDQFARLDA

[10] = test system: Vero; experiment: viability of Vero cells under compound – cytotoxicity control for flavivirus capping enzyme inhibitors (AID 588742); format: functional; details: Chlorocebus sabaeus
[11] = target: Genome polyprotein (dengue virus type 2, UniProt P29990); experiment: flavivirus cap methylation enzyme inhibition – biochemical, confirmation dose response, primary screen (AID 588689); format: functional
Genome polyprotein, sequence (P29990 2492-3391 limits assumed): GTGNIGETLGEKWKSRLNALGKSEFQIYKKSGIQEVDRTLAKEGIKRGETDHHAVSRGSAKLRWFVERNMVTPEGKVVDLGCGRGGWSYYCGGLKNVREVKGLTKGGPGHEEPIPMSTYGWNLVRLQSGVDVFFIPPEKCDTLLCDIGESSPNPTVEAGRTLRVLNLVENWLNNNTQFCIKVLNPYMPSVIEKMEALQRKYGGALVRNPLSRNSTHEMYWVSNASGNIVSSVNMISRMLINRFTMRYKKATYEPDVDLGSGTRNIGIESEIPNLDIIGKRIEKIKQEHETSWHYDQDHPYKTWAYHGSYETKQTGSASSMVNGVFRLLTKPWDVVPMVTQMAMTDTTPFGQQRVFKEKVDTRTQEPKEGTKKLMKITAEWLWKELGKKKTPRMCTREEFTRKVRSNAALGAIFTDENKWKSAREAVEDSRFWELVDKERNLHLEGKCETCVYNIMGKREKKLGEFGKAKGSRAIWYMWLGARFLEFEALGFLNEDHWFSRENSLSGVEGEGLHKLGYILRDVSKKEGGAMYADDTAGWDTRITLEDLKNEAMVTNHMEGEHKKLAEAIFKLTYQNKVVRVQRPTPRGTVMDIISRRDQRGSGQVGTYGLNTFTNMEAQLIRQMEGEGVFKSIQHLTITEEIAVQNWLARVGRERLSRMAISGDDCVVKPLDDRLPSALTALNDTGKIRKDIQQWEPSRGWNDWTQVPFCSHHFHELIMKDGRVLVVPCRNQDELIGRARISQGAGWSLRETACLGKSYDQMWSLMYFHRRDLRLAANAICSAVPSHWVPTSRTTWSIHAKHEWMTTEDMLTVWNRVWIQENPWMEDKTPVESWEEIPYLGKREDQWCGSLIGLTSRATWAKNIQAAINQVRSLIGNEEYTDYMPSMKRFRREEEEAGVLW

[12] = target: T4, DNA repair protein RAD52 homolog (Homo sapiens, UniProt P43351); format: functional, biochemical
T4 sequence (P43351 whole entry): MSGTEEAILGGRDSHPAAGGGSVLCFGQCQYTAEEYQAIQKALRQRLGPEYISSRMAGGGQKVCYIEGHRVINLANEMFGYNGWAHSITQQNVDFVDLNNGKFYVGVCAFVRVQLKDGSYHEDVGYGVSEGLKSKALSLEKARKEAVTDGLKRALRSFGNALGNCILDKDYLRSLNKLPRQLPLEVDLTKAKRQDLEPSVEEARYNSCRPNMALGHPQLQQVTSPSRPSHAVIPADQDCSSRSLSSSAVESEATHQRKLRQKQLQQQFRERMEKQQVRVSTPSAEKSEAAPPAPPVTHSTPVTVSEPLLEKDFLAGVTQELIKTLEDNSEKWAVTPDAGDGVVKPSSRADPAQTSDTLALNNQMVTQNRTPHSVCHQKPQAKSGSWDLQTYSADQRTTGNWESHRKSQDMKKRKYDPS

[13] = target: T5, Short transient receptor potential channel 4 (Mus musculus, UniProt Q9QUQ5); experiment: calcium entry via TRPC4 opening agents – cell-based, HEK293 TRPC4/mu-opioid, Fluo-4 calcium, dose response (AID 434937); format: functional
T5 sequence (Q9QUQ5 whole entry): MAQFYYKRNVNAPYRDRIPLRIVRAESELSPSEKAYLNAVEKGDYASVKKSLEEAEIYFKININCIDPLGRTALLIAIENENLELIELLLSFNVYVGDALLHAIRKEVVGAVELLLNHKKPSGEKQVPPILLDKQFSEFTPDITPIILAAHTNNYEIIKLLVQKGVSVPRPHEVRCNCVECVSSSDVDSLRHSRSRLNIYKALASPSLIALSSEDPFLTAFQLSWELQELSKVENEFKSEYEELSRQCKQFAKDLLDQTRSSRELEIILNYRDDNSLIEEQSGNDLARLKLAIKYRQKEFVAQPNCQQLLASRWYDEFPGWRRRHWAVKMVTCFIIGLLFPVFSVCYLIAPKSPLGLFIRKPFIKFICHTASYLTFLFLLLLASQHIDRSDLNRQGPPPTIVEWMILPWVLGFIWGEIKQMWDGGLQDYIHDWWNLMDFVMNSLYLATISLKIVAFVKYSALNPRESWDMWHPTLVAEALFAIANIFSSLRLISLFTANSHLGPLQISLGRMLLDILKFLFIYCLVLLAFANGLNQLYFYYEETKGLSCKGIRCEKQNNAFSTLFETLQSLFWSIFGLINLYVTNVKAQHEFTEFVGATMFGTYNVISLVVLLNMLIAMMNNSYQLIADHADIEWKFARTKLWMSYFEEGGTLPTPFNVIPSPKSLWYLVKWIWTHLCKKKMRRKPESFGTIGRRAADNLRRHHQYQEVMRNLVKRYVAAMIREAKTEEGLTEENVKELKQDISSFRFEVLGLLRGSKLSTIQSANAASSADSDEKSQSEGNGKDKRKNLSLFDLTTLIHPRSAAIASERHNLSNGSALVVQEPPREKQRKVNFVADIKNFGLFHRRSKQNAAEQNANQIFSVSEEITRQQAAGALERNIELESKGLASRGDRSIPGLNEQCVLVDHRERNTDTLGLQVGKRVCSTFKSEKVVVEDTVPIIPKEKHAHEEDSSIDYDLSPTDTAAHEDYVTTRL

[14] = blockers of CRF-binding protein–CRF-R2 complex – cell-based, uHTS hits, 384-well, dose response (AID 651639); format: functional, Homo sapiens; details: read-out: IC50_Mean
[15] = target: T6, Corticotropin-releasing factor receptor 2/Corticotropin-releasing factor-binding protein (Homo sapiens, UniProt P24387+Q13324); experiment: activators of CRF receptor 2 with binding protein – uHTS hits, confirmation (AID 602473); format: functional; details: read-out: EC50_Mean
T6 sequence (Q13324 whole entry): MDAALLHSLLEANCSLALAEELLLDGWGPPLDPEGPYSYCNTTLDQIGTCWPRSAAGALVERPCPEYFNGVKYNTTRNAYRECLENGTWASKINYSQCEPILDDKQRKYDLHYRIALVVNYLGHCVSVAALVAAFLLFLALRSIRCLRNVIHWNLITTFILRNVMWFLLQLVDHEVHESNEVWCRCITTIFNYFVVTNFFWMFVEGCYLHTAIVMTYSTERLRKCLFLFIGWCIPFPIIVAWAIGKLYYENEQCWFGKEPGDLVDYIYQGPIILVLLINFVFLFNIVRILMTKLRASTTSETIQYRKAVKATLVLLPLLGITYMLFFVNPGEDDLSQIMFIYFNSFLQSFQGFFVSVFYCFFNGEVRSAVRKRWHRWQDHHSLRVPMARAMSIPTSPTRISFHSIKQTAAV
T6 sequence (P24387 whole entry): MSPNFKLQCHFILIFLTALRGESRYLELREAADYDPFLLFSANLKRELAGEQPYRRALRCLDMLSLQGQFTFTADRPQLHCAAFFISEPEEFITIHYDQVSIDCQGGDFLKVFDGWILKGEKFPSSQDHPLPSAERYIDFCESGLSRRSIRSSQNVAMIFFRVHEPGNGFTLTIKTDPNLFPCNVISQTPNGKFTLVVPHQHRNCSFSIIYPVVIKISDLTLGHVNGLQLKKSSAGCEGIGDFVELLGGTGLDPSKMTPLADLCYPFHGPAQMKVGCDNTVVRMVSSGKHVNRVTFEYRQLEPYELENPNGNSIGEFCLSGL

[16] = target: T6, Corticotropin-releasing factor receptor 2/Corticotropin-releasing factor-binding protein; experiment: Dose Response confirmation of uHTS hits for small molecule antagonists of the CRF-binding protein and CRF-R2 receptor complex.; format: functional; details: read-out: IC50_Mean
[17] = target: Glucose-6-phosphate 1-dehydrogenase (Homo sapiens, UniProt P11413); experiment: inhibition of Homo sapiens G6PD, dose series – biochemical, fluorescence, selectivity assay for P. falciparum G6PD inhibitor project, dose response (AID 504792); format: functional
Glucose-6-phosphate 1-dehydrogenase, sequence (P11413 whole entry): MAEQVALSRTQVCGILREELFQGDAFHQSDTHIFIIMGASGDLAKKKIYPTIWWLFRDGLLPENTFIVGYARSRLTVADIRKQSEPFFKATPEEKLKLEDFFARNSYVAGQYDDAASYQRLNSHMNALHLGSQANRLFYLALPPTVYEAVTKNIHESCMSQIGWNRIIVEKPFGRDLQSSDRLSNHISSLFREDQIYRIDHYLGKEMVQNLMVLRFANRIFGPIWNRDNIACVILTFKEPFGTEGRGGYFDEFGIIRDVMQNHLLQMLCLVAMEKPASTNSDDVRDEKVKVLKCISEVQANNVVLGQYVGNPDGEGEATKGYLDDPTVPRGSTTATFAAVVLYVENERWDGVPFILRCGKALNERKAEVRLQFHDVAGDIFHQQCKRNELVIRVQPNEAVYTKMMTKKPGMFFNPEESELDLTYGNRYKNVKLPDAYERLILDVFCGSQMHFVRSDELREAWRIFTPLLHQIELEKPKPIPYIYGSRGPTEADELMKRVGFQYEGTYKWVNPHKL

[18] = target: Cytochrome P450 2C9 (Homo sapiens, UniProt P11712)
Cytochrome P450 2C9, sequence (P11712 whole entry): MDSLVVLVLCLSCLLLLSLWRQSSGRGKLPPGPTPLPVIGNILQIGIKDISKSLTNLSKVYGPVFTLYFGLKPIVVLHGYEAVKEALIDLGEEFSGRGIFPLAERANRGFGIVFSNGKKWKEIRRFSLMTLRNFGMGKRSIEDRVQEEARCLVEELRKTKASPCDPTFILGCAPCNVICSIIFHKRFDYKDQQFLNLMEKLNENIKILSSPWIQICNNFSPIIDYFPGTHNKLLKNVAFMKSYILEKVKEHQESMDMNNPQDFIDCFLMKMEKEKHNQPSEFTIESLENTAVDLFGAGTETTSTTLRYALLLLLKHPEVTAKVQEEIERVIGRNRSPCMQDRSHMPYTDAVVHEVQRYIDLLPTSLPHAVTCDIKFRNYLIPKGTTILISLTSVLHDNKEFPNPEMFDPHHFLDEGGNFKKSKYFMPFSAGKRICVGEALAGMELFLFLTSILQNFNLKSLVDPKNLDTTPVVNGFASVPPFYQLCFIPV

[19] = target: Cytochrome P450 3A4 (Homo sapiens, UniProt P08684);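 note: CYP3A4 tested as one member of a cytochrome P450 panel screen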
Cytochrome P450 3A4, sequence (P08684 whole entry): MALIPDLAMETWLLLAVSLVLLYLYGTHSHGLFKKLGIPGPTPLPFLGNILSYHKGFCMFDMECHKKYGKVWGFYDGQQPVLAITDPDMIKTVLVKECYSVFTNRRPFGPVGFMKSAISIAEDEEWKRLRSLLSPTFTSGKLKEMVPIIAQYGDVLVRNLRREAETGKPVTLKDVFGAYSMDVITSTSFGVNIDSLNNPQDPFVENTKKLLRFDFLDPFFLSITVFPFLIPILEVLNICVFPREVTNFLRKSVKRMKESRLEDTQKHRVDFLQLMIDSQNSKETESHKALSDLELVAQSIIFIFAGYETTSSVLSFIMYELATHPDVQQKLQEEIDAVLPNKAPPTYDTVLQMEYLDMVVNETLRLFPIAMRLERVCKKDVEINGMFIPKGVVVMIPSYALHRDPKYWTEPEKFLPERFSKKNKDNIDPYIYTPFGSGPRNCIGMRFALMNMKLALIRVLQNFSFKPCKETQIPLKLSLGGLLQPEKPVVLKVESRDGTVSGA

[20] = target: T7, Endoribonuclease toxin MazF (Escherichia coli K-12, UniProt P0AE70); experiment: substrate-only fluorescence increase artefacts – biochemical, single-stranded RNase substrate, counter-screen for MazEF activator project, dose response (AID 588502); format: functional
T7 sequence (P0AE70 whole entry): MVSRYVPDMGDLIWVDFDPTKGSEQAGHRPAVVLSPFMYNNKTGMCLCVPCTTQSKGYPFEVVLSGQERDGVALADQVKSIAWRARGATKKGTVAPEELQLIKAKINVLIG

[21] = target: T7, Endoribonuclease toxin MazF; experiment: activation of MazEF endoribonuclease cleavage – biochemical, fluorescence, single-stranded RNA substrate, uHTS hits, dose response (AID 588481); format: functional

Trypsin, sequence (P00761 whole entry): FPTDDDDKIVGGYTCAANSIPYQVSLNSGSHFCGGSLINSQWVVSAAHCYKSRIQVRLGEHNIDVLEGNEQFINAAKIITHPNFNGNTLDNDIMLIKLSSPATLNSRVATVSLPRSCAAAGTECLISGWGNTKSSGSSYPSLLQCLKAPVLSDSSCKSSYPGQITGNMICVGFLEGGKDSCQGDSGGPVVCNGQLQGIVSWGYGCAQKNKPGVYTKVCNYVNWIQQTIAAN

COc1ccc2c(c1)c1ncn(CCN3CCCCC3)c(=O)c1n2C
AC50 [1]: 13.1 µM (active)
AC50 [2]: 4.82 µM (active)
AC50 [3]: 13.9 µM (active)
AC50 [4]: 35 µM (active)

COCCn1c(C)cc(C(=O)COC(=O)c2ccc([N+](=O)[O-])o2)c1C
AC50 [5]: 117 µM (active)
IC50 [6]: < 0.1 µM (active)

COc1ccc(S(=O)(=O)N(C)C[C@@H]2Oc3ncc(/C=C/c4ccccc4)cc3C(=O)N([C@@H](C)CO)C[C@@H]2C)cc1
AC50 [7]: 2.03 µM (active)

Cc1coc2c1C(=O)C(=O)c1c-2ccc2c1CCCC2(C)C [TANSHINONE IIA]
IC50 [8]: 4.82 µM (active)
AC50 [9]: 88.9 µM (active)
CC50 [10]: 9.09 µM (active)
IC50 [11]: > 100 µM (active)

CCCN(CCC)CCCNC(=O)c1cc2c(-c3ccc(OC)c(OC)c3)nn(C)c2s1
AC50 [12]: 3.41 µM (active)
EC50 [13]: 0.531 µM (active)
AC50 [4]: 9.65 µM (active)

COc1ccc(Cl)cc1NC(=O)c1cccc([N+](=O)[O-])c1O
IC50 [14]: 8.13 µM (active)
EC50 [15]: > 53 µM (inactive)
IC50 [16]: 2.55 µM (active)
IC50 [17]: 46.5 µM (inactive)

CC1=Nc2ccccc2/C1=C\c1nc(-c2ccc(C(F)(F)F)cc2)oc1O
EC50 [15]: 10.2 µM (active)
AC50 [9]: > 100 µM (inactive)
AC50 [18]: 12.6 µM (inconclusive)
AC50 [19]: 28.2 µM (inconclusive)
EC50 [20]: > 99 µM (inactive)
EC50 [21]: > 99 µM (inactive)

COc1ccc(C2CCCN2C(=O)Nc2ccc(C)c(C)c2)cc1OC (configuration not stated)
IC50 [14]: > 20 µM (inactive)
EC50 [15]: > 53 µM (inactive)
IC50 [16]: 42.4 µM (active)
